By EC50 is commonly meant the midpoint of the concentration-response curve. Lower therefore signals a more potent agent.

Assay [1] has as its system E18 rat embryonic cortical co-cultures (MBP fiber length/Olig2 nuclei). In words: embryonic cortical cell co-culture myelination assay. It is filed as cell-based. Conditions: for EC50: Rattus norvegicus, 192 h, cortical myelination assay, eight days treatment, N >= 2; for myelination in the cortical myelination assay (in words): compound added DIV5, eight days, live axons. From the text:
Embryonic Cortical Culture Methods: The dissection of E18 rat (Charles River, Wilmington, Mass., USA) cortex is similar to that described previously, [32], [33] with some modifications. Briefly whole cortices from three embryos were collected in a petri dish containing HBSS. After carefully removing the meninges, the tissue was divided into cortical hemispheres, dissected and the non-cortical structures were removed. Cortical tissue was then digested in 7 U/ml papain dissolved in HBSS with 500 U/ml DNase I, and incubated for 30 minutes at 35° C. The enzymatic reaction was terminated with DMEM containing 10% FBS. The tissue was allowed to settle, supernatant was removed and tissue was triturated with a flame-polished glass Pasteur pipette in DMEM/10% FBS, 250 U/ml DNAse I until the tissue was completely dispersed. The dissociated cell suspension was centrifuged at 200×g for 5 minutes and supernatant replaced with plating medium (NB medium with 1× N21 supplement and 2 mM L-glutamine and 1% penicillin-streptomycin). […] Isolated cells were seeded onto 96-well plates pre-coated with poly-D-lysine (10 μg/m1) and laminin (2 ␣/ml) at a density of 20,000 cells/well ([…]). Neurons were allowed to adhere, recover, mature and extend axons for three days. On the fourth day, the plating medium was diluted with an equivolume of myelination medium (MyM), as described in Watkins et al., 2008 [9] with minor modifications (see results). The following day, two-thirds of the medium was replaced with fresh MyM and test compound. The day after establishing the primary culture was defined as day 1 in vitro (DIV1).
Immunofluorescence Staining and Imaging: At the experimental end point, medium was removed leaving 50 μl/well using an ELX405 microplate washer (BioTek, Winooski, Vt., USA). Cells were then fixed for 14 min with paraformaldehyde solution to a final concentration of 4%. Following fixation, plates were washed with 1 ml PBS leaving 50 μl/well using the microplate washer. Cells were then blocked in blocking buffer (10% normal goat serum, 0.1% Triton X-100, antibody buffer (150 mM NaCl, 50 mM Tris Base, 1% BSA, 100 mM L-lysine, 0.004% sodium azide, pH 7.4), and stained with mouse anti-rat MBP antibody and anti-rabbit Olig2 diluted in blocking buffer overnight at 4° C. The cells were washed and incubated with secondary antibodies, and DAPI, 0.3 μM for 1 h at room temperature. After a final wash, 100 μl of PBS was added to each well and plates imaged. Images were captured with a Nikon Eclipse TE-2000-U microscope, Zyla cMOS megapixel camera (ANDOR Technology, Belfast, UK), fitted with an automated stage controlled by NIS Elements AR software 4.0 (Melville, N.Y., USA). An air 10× lens was used to capture four images per well with 16 bit resolution, 2560×2160 pixels. Images for each assay run were captured using identical camera settings. Images were exported as TIFF files for analysis and quantification.
Image Quantification: TIFF files were analyzed using a custom algorithm created with IN Cell Investigator Developer Toolbox (GE Health Sciences, Piscataway, N.J., USA). For each well, four images were analyzed and the data from the duplicate well combined and averaged (total of eight images per test condition). The extent of OL differentiation was defined by the total threshold-selected area of MBP staining×MBP fluorescence intensity in this area divided by the total number of OLs (identified by Olig2 nuclear staining). We referred to this as the “MBP score” or “OL differentiation”. Earlier publications have characterized in vitro myelination as contiguous segments of MBP staining co-localizing with axons, representing the contact and ensheathment of axons with the myelin membrane generated by OLs.

The test system of assay [2] is purified OPCs. Conditions: lead compounds of published studies [2],[3],[4]; cited from earlier work.
Assay [3] deals with purified OPCs from P7 Sprague-Dawley rat pups. In words: acute oligodendrocyte differentiation assay with acutely purified OPCs. In kind it is cell-based. To be noted: 4 days culture, MBP staining intensity. Here is the method: Acute Oligodendrocyte Differentiation Assay: OPCs from P7 Sprague-Dawley rat pups were purified by immunopanning and cultured as described. OPCs were plated at 5000 cells/well into pDL-Laminin coated 96-well TC plate wells and centrifuged at 200×g to facilitate cell attachment, survival, and assure even distribution of OPCs. Plated OPCs were pre-incubated for 1-2 hours at 37° C. in 10% CO2 incubator, followed by addition of test compounds in quadruplicate. Controls were added in eight replicate wells, negative control=0.1% DMSO final concentration; positive control=40 ng/ml T3. The day of OPC plating was considered DIV0. On DIV4, cells were fixed, immunostained, and imaged as described below. Minor modifications include blocking cells with 10% normal goat serum (NGS)/0.4% Triton X-100 and staining overnight at 4° C. with rat anti-MBP antibodies diluted in 10% NGS/0.08% Triton X-100. OL differentiation was quantified by IN Cell Developer Toolbox image analysis software which calculated the MBP staining intensity of two images per well. The extent of OL differentiation was defined by the total threshold-selected area of MBP staining×MBP fluorescence intensity in this area divided by the total number of OLs (identified by DAPI nuclear staining).

Entries after “also recorded” stand apart in the source; their conditions may differ.

In assay [1], `N=C(N)NC(=O)c1nc(Cl)c(N)nc1N` [Amiloride] returned an EC50 of 8.9 µM.
Same read-out and setting: the figure for `C[C@H]1[C@H](OC(=O)CCC(=O)O)O[C@@H]2O[C@@]3(C)CC[C@H]4[C@H](C)CC[C@@H]1[C@@]24OO3` [Artesunate] is 3.3 µM; for `COc1ccc(CC2c3cc(OC)c(OC)cc3CC[N+]2(C)CCC(=O)OCCCCCOC(=O)CC[N+]2(C)CCc3cc(OC)c(OC)cc3C2Cc2ccc(OC)c(OC)c2)cc1OC` (stereo not shown) [Atracurium Besylate] it is 5.3 µM; for `NC(=O)[C@@H](CCC(F)(F)F)N(Cc1ccc(-c2ncon2)cc1F)S(=O)(=O)c1ccc(Cl)cc1` [BMS 708, 163] it is 0.067 µM.
For the molecule `C[C@H](NC(=O)Cc1cc(F)cc(F)c1)C(=O)N[C@H](C(=O)OC(C)(C)C)c1ccccc1` [DAPT, N-[N-(3,5-Difluorophenacetyl)-L-alanyl]-S-phenylglycine t-butyl ester], in assay [1], the “reduction of the number of Olig2+ cells” value is reported as approximately 50% and the “myelination in the cortical myelination assay (in words)” value (from here on “myelination … (in words)”) is recorded as “significant dose-dependent increases in myelination”. In addition, in assay [1] (5 days NB/N21 and 8 days MyM plus test compound), the DAPT/DMSO myelination ratio is 7.7. In addition, in assay [1] (DAPT treated cultures), the “fiber/MBP score, typically observed” value is more than 1.5. In addition, the “promotion of myelination, fold over DMSO” value in assay [1] (cultures without exogenously added OPCs) was found to be 1.76 fold over DMSO. In addition, in assay [1] (entire NCC library screen, plate controls), the “average DAPT/DMSO Fiber/MBP ratio” value stood at 1.61.
`C[C@H]1O[C@@H](O[C@H]2[C@@H](O)C[C@H](O[C@H]3[C@@H](O)C[C@H](O[C@H]4CC[C@@]5(C)[C@H](CC[C@@H]6[C@@H]5C[C@@H](O)[C@]5(C)[C@@H](C7=CC(=O)OC7)CC[C@]65O)C4)O[C@@H]3C)O[C@@H]2C)C[C@H](O)[C@@H]1O` [Digoxin] had an EC50 in assay [1] of 11.3 µM.
On the same count and under the same terms, the figure for `CC(=O)O[C@@]12CO[C@@H]1C[C@H](O)[C@@]1(C)C(=O)[C@H](O)C3=C(C)[C@@H](OC(=O)[C@H](O)[C@@H](NC(=O)OC(C)(C)C)c4ccccc4)C[C@@](O)([C@@H](OC(=O)c4ccccc4)[C@H]21)C3(C)C` [Docetaxel] is 0.1 µM; for `O=S(=O)(NC1CCC(c2cc(F)ccc2F)(S(=O)(=O)c2ccc(Cl)cc2)CC1)C(F)(F)F` (stereo not shown) [MRK 560] it is 0.082 µM.
Turning to `CN(Cc1cnc2nc(N)nc(N)c2n1)c1ccc(C(=O)N[C@@H](CCC(=O)O)C(=O)O)cc1` [Methotrexate], in assay [1] (NCC library screen), the “Olig2+ nuclei expression (in words)” value was “very low overall Olig2+ nuclei expression”. This molecule also showed an EC50 in assay [1] of 0.1 µM.
In assay [1], `NC(=O)N1c2ccccc2CC(=O)c2ccccc21` [Oxcarbazepine] displayed an EC50 of 14.7 µM.
In turn, `O=c1[nH]c(=O)n(C2CCCO2)cc1F` (stereo not shown) [Tegafur] displayed an EC50 in assay [1] of 2.7 µM.
The same measure, in the same setting: the result for `COc1cc(CNC(=O)CCCC/C=C\C(C)C)ccc1O` [Zu-capsaicin] reads 4.7 µM.
Take `CN1[C@@H]2CC[C@H]1C[C@@H](OC(c1ccccc1)c1ccccc1)C2` [benztropine]: in assay [2], the “OL differentiation in cultures of purified OPCs (published screens)” value (shortened to “OL differentiation in cultures”) was “facilitate OL differentiation”. Also, in assay [3], the “OL differentiation of purified OPCs (in words)” value was “facilitate OL differentiation; also recorded: significant OL differentiation”. In addition, the “myelination … (in words)” value in assay [1] is on record as “little to no activity; also recorded: no effect on myelination; also recorded: did not promote myelination”.
On to `CN1CCC[C@@H]1CCO[C@](C)(c1ccccc1)c1ccc(Cl)cc1` [clemastine], for which the “OL differentiation in cultures” value in assay [2] is reported as “facilitate OL differentiation”. The “OL differentiation of purified OPCs (in words)” value in assay [3] is listed as “facilitate OL differentiation; also recorded: significant OL differentiation”. Moreover, the “myelination … (in words)” value in assay [1] was “little to no activity; also recorded: no effect on myelination; also recorded: did not promote myelination”.
Turning to `C[C@H]1C[C@H]2[C@@H]3CCC4=CC(=O)C=C[C@]4(C)[C@@]3(F)[C@@H](O)C[C@]2(C)[C@@]1(O)C(=O)CCl` [clobetasol], the “OL differentiation in cultures” value in assay [2] is listed as “facilitate OL differentiation”. Further, the “myelination … (in words)” value in assay [1] is given as “no effect on myelination”.
Take `Clc1ccc(COC(Cn2ccnc2)c2ccc(Cl)cc2Cl)c(Cl)c1` (stereo not shown) [miconazole]: the “OL differentiation in cultures” value in assay [2] is reported as “facilitate OL differentiation”. In addition, the “myelination … (in words)” value in assay [1] is listed as “no effect on myelination”.

Source of the values: patent publication US20190125702A1, “Methods and Compositions for the Treatment of Demyelinating Disorders” (Vitality Biopharma, Inc., priority 2016, published 2019).
